From ChEMBL document CHEMBL1150083, “The Racemization of Crinitol. Resolution of Crinitol and of 3-Nonen-2-ol Enantiomers by Recycle-HPLC, via MTPA Esters” (J Nat Prod, 1995)
Calls of active or inactive are those of the source.

Tests used:
Type in all cases: functional, organism-based
Bacillus subtilis = experiment: Antimicrobial activity against Bacillus subtilis
[1] = tested on: Corynebacterium ammoniagenes; experiment: Antimicrobial activity against Brevibacterium ammoniagenes
Staphylococcus aureus = experiment: Antimicrobial activity against Staphylococcus aureus
Streptococcus mutans = experiment: Antimicrobial activity against Streptococcus mutans
Cutibacterium acnes = experiment: Antimicrobial activity against Propionibacterium acnes

Measured: Activity

CC(C)=CCC/C(C)=C/[C@@H](O)C/C(C)=C/CC/C(C)=C/CO
active: all assays above

CC(C)=CCC/C(C)=C/[C@H](O)C/C(C)=C/CC/C(C)=C/CO
active: all assays above
